# Reference: ChEMBL document CHEMBL1201862, “PubChem BioAssay data set” (2004)
#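 All cell lines were grown in 96-well plates and treated with compound for 48 hours. GI50 marks 50% less growth.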 Activity calls are given as the source filed them. Cut-off read from the data, not from the text of the source: active = GI50 up to about 1.1 µM and inactive = higher.
# Assays:
# Assay in all cases: NCI-60 cell line screen, 48 h
# A549 = test system: A549
# UACC-257 = test system: UACC-257
# OVCAR-3 = test system: OVCAR-3
# IGROV-1 = test system: IGROV-1
# MDA-MB-435 = test system: MDA-MB-435
# TK-10 = test system: TK-10
# NCI-H522 = test system: NCI-H522
# SR = test system: SR
# Hs-578T = test system: Hs-578T
# EKVX = test system: EKVX
# ACHN = test system: ACHN
# MCF7 = test system: MCF7
# RXF 393 = test system: RXF 393
# OVCAR-5 = test system: OVCAR-5
# SF-295 = test system: SF-295
# 786-0 = test system: 786-0
# SK-MEL-28 = test system: SK-MEL-28
# SK-OV-3 = test system: SK-OV-3
# M14 = test system: M14
# Malme-3M = test system: Malme-3M
Structure (SMILES),GI50 (A549),GI50 (UACC-257),GI50 (OVCAR-3),GI50 (IGROV-1),GI50 (MDA-MB-435),GI50 (TK-10),GI50 (NCI-H522),GI50 (SR),GI50 (Hs-578T),GI50 (EKVX),GI50 (ACHN),GI50 (MCF7),GI50 (RXF 393),GI50 (OVCAR-5),GI50 (SF-295),GI50 (786-0),GI50 (SK-MEL-28),GI50 (SK-OV-3),GI50 (M14),GI50 (Malme-3M)
O=C(OCc1ccccc1)N1CCNCCN(C(=O)OCc2ccccc2)CCNCC1,63.2 µM (inactive),21.4 µM (inactive),35.4 µM (inactive),32.2 µM (inactive),24 µM (inactive),91.8 µM (inactive),16.3 µM (inactive),86.1 µM (inactive),21.2 µM (inactive),28 µM (inactive),50.4 µM (inactive),17.7 µM (inactive),52.8 µM (inactive),32.2 µM (inactive),23.9 µM (inactive),18.3 µM (inactive),19.5 µM (inactive),49.8 µM (inactive),–,–
O=c1[nH]c(=O)n(COCc2ccccc2)c2ccsc12,> 100 µM (inactive),> 100 µM (inactive),–,> 100 µM (inactive),> 100 µM (inactive),> 100 µM (inactive),> 100 µM (inactive),88.7 µM (inactive),49.1 µM (inactive),22.2 µM (inactive),> 100 µM (inactive),> 100 µM (inactive),> 100 µM (inactive),> 100 µM (inactive),–,> 100 µM (inactive),> 100 µM (inactive),–,> 100 µM (inactive),> 100 µM (inactive)
O=Cc1cccc2c1Oc1c(cccc1C(=O)O)S2,23.6 µM (inactive),> 100 µM (inactive),33.3 µM (inactive),> 100 µM (inactive),> 100 µM (inactive),> 100 µM (inactive),81.5 µM (inactive),< 0.01 µM (active),65.9 µM (inactive),70.1 µM (inactive),34.3 µM (inactive),89.3 µM (inactive),–,> 100 µM (inactive),52.7 µM (inactive),76.2 µM (inactive),> 100 µM (inactive),61.8 µM (inactive),> 100 µM (inactive),81.3 µM (inactive)
O=C(c1cccc(C(=O)c2ccc3c4c(cccc24)C(=O)N(c2ccccc2)C3=O)c1)c1ccc2c3c(cccc13)C(=O)N(c1ccccc1)C2=O,> 100 µM (inactive),72.8 µM (inactive),> 100 µM (inactive),63.7 µM (inactive),> 100 µM (inactive),69.8 µM (inactive),> 100 µM (inactive),–,52.8 µM (inactive),38 µM (inactive),> 100 µM (inactive),28.2 µM (inactive),> 100 µM (inactive),> 100 µM (inactive),71.9 µM (inactive),> 100 µM (inactive),> 100 µM (inactive),> 100 µM (inactive),> 100 µM (inactive),> 100 µM (inactive)
CSc1cc(Cl)c(C)cc1S(=O)(=O)NC(=O)NNc1cccc(C(F)(F)F)n1,> 100 µM (inactive),–,> 100 µM (inactive),> 100 µM (inactive),> 100 µM (inactive),–,> 100 µM (inactive),> 100 µM (inactive),> 100 µM (inactive),> 100 µM (inactive),> 100 µM (inactive),> 100 µM (inactive),> 100 µM (inactive),> 100 µM (inactive),> 100 µM (inactive),> 100 µM (inactive),> 100 µM (inactive),> 100 µM (inactive),> 100 µM (inactive),> 100 µM (inactive)
CSC1=N/C(=C\c2ccc(Cl)cc2)C(=O)N1CN1CCCCC1,42.4 µM (inactive),–,34.2 µM (inactive),7.38 µM (inactive),35.9 µM (inactive),31.6 µM (inactive),27.4 µM (inactive),25 µM (inactive),20.7 µM (inactive),16.6 µM (inactive),25.4 µM (inactive),5.33 µM (inactive),–,99.1 µM (inactive),35.5 µM (inactive),42.8 µM (inactive),> 100 µM (inactive),35.1 µM (inactive),79.1 µM (inactive),25.5 µM (inactive)
CC(=O)OCC1OC(SC2=N/C(=C\c3ccc(Br)s3)C(=O)N2CN2CCOCC2)C(OC(C)=O)C(OC(C)=O)C1OC(C)=O (stereo not drawn),–,16.6 µM (inactive),> 10 µM (inactive),16.8 µM (inactive),23.8 µM (inactive),16.7 µM (inactive),6.87 µM (inactive),12.6 µM (inactive),19.5 µM (inactive),8.22 µM (inactive),16.2 µM (inactive),15.4 µM (inactive),–,22.9 µM (inactive),19.5 µM (inactive),16.7 µM (inactive),15.7 µM (inactive),–,–,16.5 µM (inactive)
COC(=O)CN(CC1O[C@@H]2OC(C)(C)O[C@@H]2C1NC(C)=O)C(=O)OCc1ccccc1 (stereo partly drawn),> 100 µM (inactive),> 100 µM (inactive),> 100 µM (inactive),> 100 µM (inactive),> 100 µM (inactive),> 100 µM (inactive),> 100 µM (inactive),> 100 µM (inactive),> 100 µM (inactive),> 100 µM (inactive),> 100 µM (inactive),> 100 µM (inactive),–,> 100 µM (inactive),> 100 µM (inactive),> 100 µM (inactive),> 100 µM (inactive),> 100 µM (inactive),> 100 µM (inactive),–
